Experimental data taken from patent EP1460077B1, “Novel pyrazolopyrimidones and their use as PDE inhibitors” (The Jordanian Pharmaceutical Manufacturing Co. Ltd., priority 2003, dated 2004).

Assays:
male rats = assay: Erection episodes and Penile Erection Index (PEI) in male rats within 2 hours (according to EP 1057829 A1); assay type: in vivo; conditions: 10 rats
Protocol: (§1) The purpose of the study was to compare the biological activity of the compositions of the present invention with that of sildenafil. In particular, the erection episodes and penile erection indexes of the compounds and compositions in the treatment of male rats and rabbits were determined.
(§2) Details on the determination of PEI values can be found in e.g. H.H. Ang and M.K. Sim, Effects of Eurycoma longifilia Jack on Penile Erection Indes and Homosexual Mounting in Rats, Pharmaceutical Sciences, 3 (1997), 117-19; and A. Benassi-Benelli, F. Ferrari and B. Pellegrini Quaratotti, Penile erection Induced by Apomorphine and N-n-propyl-norapomorphine in Rats, Arch. Int. Pharmacodyn 242 (1979), 241-247. The episode is a description for rat sucking their penus.
(§3) Rabbit experiments where performed according to E. Bischof and K. Schneider, "International Journal of Impotence Research", 13 (2001) 230 - 235, and rat experiments where performed according to EP 1057829 A1.
Further, the effect on penile length of rats was studied and the following results are given in table 2 for a compound disclosed in the invention and in table 3 for sildenafil. The penile length is indicative of the efficacy of the administered medicament.

rabbits = assay: Penile erection index for rabbits in dependency on time (according to Bischof and Schneider); assay type: in vivo; set-up: penile erection index: scale not given here
Protocol: as §1, §2, §3
Studying the penile erection index for rabbits in dependency on time yields the results given in table 1 for sildenafil and the compound (III).

CCCc1nn(C)c2c(=O)[nH]c(-c3cc(S(=O)(=O)N4CCN(C)CC4)ccc3OCC)nc12 [Sildenafil, sildenafil] was tested, and the No. of episodes (male rats; dose 0.0781 mg/kg) was 3, the PEI (male rats; dose 0.0781 mg/kg) was 90 and the No. of episodes (male rats; dose 0.1562 mg/kg) was 5. For the same compound, the PEI (male rats; dose 0.1562 mg/kg) was 150, the No. of episodes (male rats; dose 0.3125 mg/kg) was 7 and the PEI (male rats; dose 0.3125 mg/kg) was 350. The No. of episodes (male rats; dose 0.6250 mg/kg) was 14, the PEI (male rats; dose 0.6250 mg/kg) was 980 and the “efficacy (penile erection index for rabbits), comparison in words” value (rabbits; comparison of sildenafil, compound III and compositions) was “greater efficacy than compounds III”. For the same compound, the penile erection index (rabbits; time 0 min) was 0, the penile erection index (rabbits; time 5 min) was 18.318 and the penile erection index (rabbits; time 10 min) was 16.694. For the same compound, the penile erection index (rabbits; time 15 min) was 15.22, the penile erection index (rabbits; time 20 min) was 13.108 and the penile erection index (rabbits; time 30 min) was 11.218. For the same compound, the penile erection index (rabbits; time 40 min) was 7.364 and the penile erection index (rabbits; time 50 min) was 2.94.
